“And” between values parts separate entries of the source, which are not always exact repeats. Identical values can stand only once.

For assay [1], the system named is PDGF-R. Description: PDGF-R Assay (cellular ELISA, U1242 cells). The format is cell-based. Details: concentration or dose not given beside the values. As to conditions: protocol P.119. The method, then:
(§1) The cellular/catalytic assays described herein are performed in an ELISA format. The general procedure is as follows: a compound is introduced to cells expressing the test kinase, either naturally or recombinantly, for a selected period of time after which, if the test kinase is a receptor, a ligand known to activate the receptor is added. The cells are lysed and the lysate is transferred to the wells of an ELISA plate previously coated with a specific antibody recognizing the substrate of the enzymatic phosphorylation reaction. Non-substrate components of the cell lysate are washed away and the amount of phosphorylation on the substrate is detected with an antibody specifically recognizing phosphotyrosine compared with control cells that were not contacted with a test compound.
All cell culture media, glutamine, and fetal bovine serum can be purchased from Gibco Life Technologies (Grand Island, N.Y.) unless otherwise specified. All cells are grown in a humid atmosphere of 90-95% air and 5-10% CO2 at 37° C. All cell lines are routinely subcultured twice a week and are negative for mycoplasma as determined by the Mycotect method (Gibco).
For ELISA assays, cells (U1242, obtained from Joseph Schlessinger, NYU) are grown to 80-90% confluency in growth medium (MEM with 10% FBS, NEAA, 1 mM NaPyr and 2 mM GLN) and seeded in 96-well tissue culture plates in 0.5% serum at 25,000 to 30,000 cells per well. After overnight incubation in 0.5% serum-containing medium, cells are changed to serum-free medium and treated with test compound for 2 hr in a 5% CO2, 37° C. incubator. Cells are then stimulated with ligand for 5-10 minute followed by lysis with HNTG (20 mM Hepes, 150 mM NaCl, 10% glycerol, 5 mM EDTA, 5 mM Na3VO4, 0.2% Triton X-100, and 2 mM NaPyr). Cell lysates (0.5 mg/well in PBS) are transferred to ELISA plates previously coated with receptor-specific antibody and which had been blocked with 5% milk in TBST (50 mM Tris-HCl pH 7.2, 150 mM NaCl and 0.1% Triton X-100) at room temperature for 30 min. Lysates are incubated with shaking for 1 hour at room temperature. The plates are washed with TBST four times and then incubated with polyclonal anti-phosphotyrosine antibody at room temperature for 30 minutes. Excess anti-phosphotyrosine antibody is removed by rinsing the plate with TBST four times. Goat anti-rabbit IgG antibody is added to the ELISA plate for 30 min at room temperature followed by rinsing with TBST four more times. ABTS (100 mM citric acid, 250 mM Na2HPO4 and 0.5 mg/mL 2,2′-azino-bis (3-ethylbenzthiazoline-6-sulfonic acid)) plus H2O2 ([…] 30% H2O2 to 10 ml ABTS) is added to the ELISA plates to start color development. Absorbance at 410 nm with a reference wavelength of 630 nm is recorded about 15 to 30 min after ABTS addition.
For orientation: ELISA stands for enzyme-linked immunosorbent assay.

For assay [2], the system named is FLK-1 receptor. Description: FLK-1 Assay (cellular/catalytic ELISA, VEGF-stimulated phosphotyrosine). Format: cell-based. Set-up: concentration or dose not given beside the values. As to conditions: protocol P.110. The method, then:
as §1
An ELISA assay is conducted to measure the kinase activity of the FLK-1 receptor and more specifically, the inhibition or activation of TK activity on the FLK-1 receptor. Specifically, the following assay can be conducted to measure kinase activity of the FLK-1 receptor in cells genetically engineered to express Flk-1.
a. Corning 96-well ELISA plates (Corning Catalog No. 25805-96);
b. Cappel goat anti-rabbit IgG (catalog no. 55641);
c. PBS (Gibco Catalog No. 450-1300EB);
d. TBSW Buffer (50 mM Tris (pH 7.2), 150 mM NaCl and 0.1% Tween-20);
e. Ethanolamine stock (10% ethanolamine (pH 7.0), stored at 4° C.);
f. HNTG buffer (20 mM HEPES buffer (pH 7.5), 150 mM NaCl, 0.2% Triton X-100, and 10% glycerol);
g. EDTA (0.5 M (pH 7.0) as a 100× stock);
h. Sodium orthovanadate (0.5 M as a 100× stock);
i. Sodium pyrophosphate (0.2 M as a 100× stock);
j. NUNC 96 well V bottom polypropylene plates (Applied Scientific Catalog No. AS-72092);
k. NIH3T3 C7#3 Cells (FLK-1 expressing cells);
l. DMEM with 1× high glucose L-Glutamine (catalog No. 11965-050);
n. L-glutamine, Gibco (catalog no. 25030-016);
o. VEGF, PeproTech, Inc. (catalog no. 100-20)(kept as 1 μg/100 μl stock in Milli-Q dH2O and stored at −20° C.;
p. Affinity purified anti-FLK-1 antiserum;
q. UB40 monoclonal antibody specific for phosphotyrosine (see, Fendley, et al., 1990, Cancer Research 50:1550-1558);
r. EIA grade Goat anti-mouse IgG-POD (BioRad catalog no. 172-1011);
s. 2,2-azino-bis(3-ethylbenz-thiazoline-6-sulfonic acid (ABTS) solution (100 mM citric acid (anhydrous), 250 mM Na2HPO4 (pH 4.0), 0.5 mg/ml ABTS (Sigma catalog no. A-1888)), solution should be stored in dark at 4° C. until ready for use;
t. H2O2 (30% solution) (Fisher catalog no. H325);
u. ABTS/ H2O2 (15 ml ABTS solution, 2 μl H2O2) prepared 5 minutes before use and left at room temperature;
v. 0.2 M HCl stock in H2O;
w. dimethylsulfoxide (100%) (Sigma Catalog No. D-8418); and
y. Trypsin-EDTA (Gibco BRL Catalog No. 25200-049).
1. Coat Corning 96-well ELISA plates with 1.0 μg per well Cappel Anti-rabbit IgG antibody in 0.1M Na2CO3 pH 9.6. Bring final volume to 150 μl per well. Coat plates overnight at 4° C. Plates can be kept up to two weeks when stored at 4° C.
2. Grow cells in Growth media (DMEM, supplemented with 2.0 mM L-Glutamine, 10% FBS) in suitable culture dishes until confluent at 37° C., 5% CO2.
3. Harvest cells by trypsinization and seed in Corning 25850 polystyrene 96-well round bottom cell plates, 25,000 cells/well in 200 μl of growth media.
4. Grow cells at least one day at 37° C., 5% CO2.
5. Wash cells with D-PBS 1×.
6. Add 200 μl/well of starvation media (DMEM, 2.0 mM 1-Glutamine, 0.1% FBS). Incubate overnight at 37° C., 5% CO2.
7. Dilute Compounds 1:20 in polypropylene 96 well plates using starvation media. Dilute dimethylsulfoxide 1:20 for use in control wells.
8. Remove starvation media from 96 well cell culture plates and add 162 μl of fresh starvation media to each well.
9. Add 18 μl of 1:20 diluted compound dilution (from step 7) to each well plus the 1:20 dimethylsulfoxide dilution to the control wells (+/− VEGF), for a final dilution of 1:200 after cell stimulation. Final dimethylsulfoxide is 0.5%. Incubate the plate at 37° C., 5% CO2 for two hours.
10. […]

As to `Cc1c(Br)cc(Br)c2c1C(=CC1COc3ccccc3O1)C(=O)N2` (racemic) [10739/H05], the “PDGF Kinase % Inhibition (P.119)” value in assay [1] is −5.0% and −6.4%. In addition, in assay [2], the “Flk Kinase % Inhibition (P.110)” value is 5.3% and 10.0%.

These data come from patent publication US20020026053A1, “Novel 3-(substituted) -2- indolinones compounds and use thereof as inhibitors of protein kinase activity” (priority 1997, published 2002).
